What is called aqueous solubility is the concentration that dissolves in the medium under given conditions. High values mean a readily soluble substance, low ones a poorly soluble substance. A word on the solubility: it is the concentration that dissolves in the medium under given conditions. A higher solubility goes with much dissolved substance.

This note sets out measurements from patent US20020034545A1, “Particulate composition of eletriptan” (priority 2000, published 2002).

The nature of the data set: physchem. The format is physicochemical. The source says:
Several salts of eletriptan have been identified that have properties which make them particularly suitable for development as drug substances. […] It is therefore desirable to provide a controlled release formulation capable of achieving a sigmoidal pattern of drug release and suitable for oral administration that is equally useful for the delivery of any form of eletriptan, regardless of its solubility.

In brackets after ≈: the same amount, converted by molar mass. Structures can show the parent of a compound that is named as a salt. Where only a bound is given, the exact number is not on record here.

With `CN1CCC[C@@H]1Cc1c[nH]c2ccc(CCS(=O)(=O)c3ccccc3)cc12` [eletriptan free base, 3-{[1-methylpyrrolidin-2(R)-yl]methyl}-5-(2-phenylsulfonylethyl)-1H-indole], the aqueous solubility turned out to be 2.5 mg/mL (≈ 6.54 mM).
`CN1CCC[C@@H]1Cc1c[nH]c2ccc(CCS(=O)(=O)c3ccccc3)cc12` [hydrobromide salt, eletriptan hydrobromide] came in with a solubility (20 °C, water, aqueous solubility) of 4000 µg/mL.
The compound “eletriptan hemisulphate [hemisulphate salt]” yielded an aqueous solubility greater than 200 mg/mL.
